The assay addresses PD-L1 His protein / PD-1 Fc protein (Homo sapiens, UniProt Q9NZQ7). The experiment in a line: HTRF Assay (PD-1/PD-L1 interaction). It counts as binding. The conditions noted are these: PD-L1 His 6 nM, PD-1 Fc 6 nM. Put shortly:
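Compounds tested from 20 μM down to 0.001 μM (3-fold) against 6 nM PD-L1 His and 6 nM PD-1 Fc, 15 min room temperature incubation. Detection after 1 h at room temperature with Tb cryptate anti-6HIS and XL665 anti-human IgG reagents (mixture at 0.35 nM and 6.7 nM), HTRF signal.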

Molecules are shown by their SMILES.

Sequence of PD-L1 His protein / PD-1 Fc protein (Q9NZQ7 19-238 limits assumed): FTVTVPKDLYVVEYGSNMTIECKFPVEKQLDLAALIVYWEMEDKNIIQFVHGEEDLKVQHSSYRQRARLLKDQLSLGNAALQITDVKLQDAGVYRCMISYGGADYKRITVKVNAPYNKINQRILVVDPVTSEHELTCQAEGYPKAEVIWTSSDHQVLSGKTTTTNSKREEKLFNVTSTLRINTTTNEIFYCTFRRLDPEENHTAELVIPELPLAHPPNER

For orientation: IC50 means the concentration at which inhibition is half-maximal. Molecule `COc1nc(-c2cccc(-c3cccc(-c4ccc5c(n4)CCC[C@@H]5NC[C@@H]4CCC(=O)N4)c3Cl)c2Cl)ccc1CNC[C@@H]1CCC(=O)N1` [Example 435, (S)-5-((((6-(2,2′-Dichloro-3′-((S)-5-((((S)-5-oxopyrrolidin-2-yl)methyl)amino)-5,6,7,8-tetrahydroquinolin-2-yl)-[1,1′-biphenyl]-3-yl)-2-methoxypyridin-3-yl)methyl)amino)methyl)pyrrolidin-2-one] showed an IC50 of 23 nM. In the case of `COc1nc(-c2cccc(-c3cccc(-c4cc5c(=O)n(C)c(CN(C)C[C@H](C)O)nn5c4)c3Cl)c2Cl)ccc1CNC[C@@H]1CCC(=O)N1` [Example 436, 6-(2,2′-dichloro-3′-(6-methoxy-5-(((((S)-5-oxopyrrolidin-2-yl)methyl)amino)methyl)pyridin-2-yl)-[1,1′-biphenyl]-3-yl)-2-((((S)-2-hydroxypropyl)(methyl)amino)methyl)-3-methylpyrrolo[2,1-f][1,2,4]triazin-4(3H)-one], the IC50 was determined as 26 nM. `COc1nc(-c2cccc(-c3cccc(-c4cc5c(=O)n(C)c(CNCCCF)nn5c4)c3Cl)c2Cl)ccc1CNC[C@@H]1CCC(=O)N1` [Example 437, (S)-6-(2,2′-Dichloro-3′-(6-methoxy-5-((((5-oxopyrrolidin-2-yl)methyl)amino)methyl)pyridin-2-yl)-[1,1′-biphenyl]-3-yl)-2-(((3-fluoropropyl)amino)methyl)-3-methylpyrrolo[2,1-f][1,2,4]triazin-4(3H)-one] registered an IC50 of 52 nM. As for `COc1nc(-c2cccc(-c3cccc(-c4ccc5nc(C(=O)NCCN)cn5n4)c3Cl)c2Cl)ccc1CNC[C@@H]1CCC(=O)N1` [Example 438, N-(2-Aminoethyl)-6-[2-chloro-3-[2-chloro-3-[6-methoxy-5-[[[(2S)-5-oxopyrrolidin-2-yl]methylamino]methyl]-2-pyridyl]phenyl]phenyl]imidazo[1,2-b]pyridazine-2-carboxamide], the figure is 14 nM; as for `COc1nc(-c2cccc(-c3cccc(-c4ccc5nc(C(=O)NC[C@H](C)N)cn5n4)c3Cl)c2Cl)ccc1CNC[C@@H]1CCC(=O)N1` [Example 439, N-[(2S)-2-Aminopropyl]-6-[2-chloro-3-[2-chloro-3-[6-methoxy-5-[[[(2S)-5-oxopyrrolidin-2-yl]methylamino]methyl]-2-pyridyl]phenyl]phenyl]imidazo[1,2-b]pyridazine-2-carboxamide], 20 nM. Molecule `COc1nc(-c2cccc(-c3cccc(-c4ccc5nc(C(=O)NCCc6c[nH]cn6)cn5n4)c3Cl)c2Cl)ccc1CNC[C@@H]1CCC(=O)N1` [Example 440, 6-[2-Chloro-3-[2-chloro-3-[6-methoxy-5-[[[(2S)-5-oxopyrrolidin-2-yl]methylamino]methyl]-2-pyridyl]phenyl]phenyl]-N-[2-(1H-imidazol-4-yl)ethyl]imidazo[1,2-b]pyridazine-2-carboxamide] showed an IC50 of 27 nM. In the case of `COc1nc(-c2cccc(-c3cccc(-c4ncc5c(n4)CCN(C[C@@H]4CCC(=O)N4)C5)c3Cl)c2Cl)ccc1CNC[C@@H]1CCC(=O)N1` [Example 443, (S)-5-((((6-(2,2′-Dichloro-3′-(6-(((S)-5-oxopyrrolidin-2-yl)methyl)-5,6,7,8-tetrahydropyrido[4,3-d]pyrimidin-2-yl)-[1,1′-biphenyl]-3-yl)-2-methoxypyridin-3-yl)methyl)amino)methyl)pyrrolidin-2-one] it was 0.1 nM; in that of `COc1nc(-c2cccc(-c3cccc(-c4ccc5c(CNC[C@@H]6CCCO6)cn(C)c5n4)c3Cl)c2Cl)ccc1CNC[C@@H]1CCC(=O)N1` [Example 444, (5S)-5-[[[6-[2-Chloro-3-[2-chloro-3-[1-methyl-3-[[[(2S)-tetrahydrofuran-2-yl]methylamino]methyl]pyrrolo[2,3-b]pyridin-6-yl]phenyl]phenyl]-2-methoxy-3-pyridyl]methylamino]methyl]pyrrolidin-2-one], 920 nM; in that of `COc1nc(-c2cccc(-c3cccc(-c4ccc5c(CNC[C@H](C)OC)cn(C)c5n4)c3Cl)c2Cl)ccc1CNC[C@@H]1CCC(=O)N1` [Example 445, (5S)-5-[[[6-[2-Chloro-3-[2-chloro-3-[3-[[[(2S)-2-methoxypropyl]amino]methyl]-1-methyl-pyrrolo[2,3-b]pyridin-6-yl]phenyl]phenyl]-2-methoxy-3-pyridyl]methylamino]methyl]pyrrolidin-2-one], 460 nM. In the case of `COc1nc(-c2cccc(-c3cccc(-c4cc5c(=O)n(C)c(CNC6CC7(COC7)C6)nn5c4)c3Cl)c2Cl)ccc1CNC[C@@H]1CCC(=O)N1` [Example 446, 6-[2-Chloro-3-[2-chloro-3-[6-methoxy-5-[[[(2S)-5-oxopyrrolidin-2-yl]methylamino]methyl]-2-pyridyl]phenyl]phenyl]-3-methyl-2-[(2-oxaspiro[3.3]heptan-6-ylamino)methyl] pyrrolo[2,1-f][1,2,4]triazin-4-one] it was 160 nM; in that of `COc1nc(-c2cccc(-c3cccc(-c4cc5c(=O)n(C)c(CN6CC7(COC7)C6)nn5c4)c3Cl)c2Cl)ccc1CNC[C@@H]1CCC(=O)N1` [Example 447, 6-[2-Chloro-3-[2-chloro-3-[6-methoxy-5-[[[(2S)-5-oxopyrrolidin-2-yl]methylamino]methyl]-2-pyridyl]phenyl]phenyl]-3-methyl-2-(2-oxa-6-azaspiro[3.3]heptan-6-ylmethyl)pyrrolo[2,1-f][1,2,4]triazin-4-one], 5 nM; in that of `COc1nc(-c2cccc(-c3cccc(-c4cc5c(=O)n(C)c(CN6CC7(CCC(=O)N7)C6)nn5c4)c3Cl)c2Cl)ccc1CNC[C@@H]1CCC(=O)N1` [Example 448, 6-[2-Chloro-3-[2-chloro-3-[6-methoxy-5-[[[(2S)-5-oxopyrrolidin-2-yl]methylamino]methyl]-2-pyridyl]phenyl]phenyl]-3-methyl-2-[(6-oxo-2,5-diazaspiro[3.4]octan-2-yl)methyl]pyrrolo [2,1-f][1,2,4]triazin-4-one], 6.8 nM. Molecule `COc1nc(-c2cccc(-c3cccc(-c4cc5c(=O)n(C)c(CNC6CC7(CCC(=O)N7)C6)nn5c4)c3Cl)c2Cl)ccc1CNC[C@@H]1CCC(=O)N1` (stereo partly drawn) [Example 449, 6-[2-Chloro-3-[2-chloro-3-[6-methoxy-5-[[[(2S)-5-oxopyrrolidin-2-yl]methylamino]methyl]-2-pyridyl]phenyl]phenyl]-3-methyl-2-[[(6-oxo-5-azaspiro[3.4]octan-2-yl)amino]methyl] pyrrolo[2,1-f][1,2,4]triazin-4-one] had an IC50 of 450 nM. As for `COc1nc(-c2cccc(-c3cccc(-c4cc5c(=O)n(C)c(CNCCC6CCC(=O)N6)nn5c4)c3Cl)c2Cl)ccc1CNC[C@@H]1CCC(=O)N1` (stereo partly drawn) [Example 451, 6-[2-Chloro-3-[2-chloro-3-[6-methoxy-5-[[[(2S)-5-oxopyrrolidin-2-yl]methylamino]methyl]-2-pyridyl]phenyl]phenyl]-3-methyl-2-[[2-(5-oxopyrrolidin-2-yl)ethylamino]methyl]pyrrolo [2,1-f][1,2,4]triazin-4-one], the figure is 200 nM. As for `COc1nc(-c2cccc(-c3cccc(-c4ccc5c(CNC[C@@H]6CCC(=O)N6)cn(C)c5c4)c3Cl)c2Cl)ccc1CNC[C@@H]1CCC(=O)N1` [Example 452, (5S)-5-[[[6-[2-Chloro-3-[2-chloro-3-[1-methyl-3-[[[(2S)-5-oxopyrrolidin-2-yl]methylamino]methyl]indol-6-yl]phenyl]phenyl]-2-methoxy-3-pyridyl]methylamino]methyl]pyrrolidin-2-one], the figure is 68 nM. As for `Cn1cc(CNC[C@@H]2CCC(=O)N2)c2ccc(-c3cccc(-c4cccc(-c5ccn6c(=O)c(CNC[C@@H]7CCC(=O)N7)cnc6c5)c4Cl)c3Cl)cc21` [Example 453, 8-[2-Chloro-3-[2-chloro-3-[1-methyl-3-[[[(2S)-5-oxopyrrolidin-2-yl]methylamino]methyl]indol-6-yl]phenyl]phenyl]-3-[[[(2S)-5-oxopyrrolidin-2-yl]methylamino]methyl]pyrido[1,2-a]pyrimidin-4-one], the figure is 1200 nM; as for `COc1nc(-c2cccc(-c3cccc(-c4cc5c(cn4)CN(CCNC[C@@H]4CCC(=O)N4)C5=O)c3Cl)c2Cl)ccc1CNC[C@@H]1CCC(=O)N1` [Example 454, 6-(2,2′-dichloro-3′-(6-methoxy-5-(((((S)-5-oxopyrrolidin-2-yl)methyl)amino)methyl)pyridin-2-yl)-[1,1′-biphenyl]-3-yl)-2-(2-((((S)-5-oxopyrrolidin-2-yl)methyl)amino)ethyl)-2,3-dihydro-1H-pyrrolo[3,4-c]pyridin-1-one], 0.1 nM; as for `COc1cc(-c2cccc(-c3cccc(-c4ccc(CNC[C@@H]5CCC(=O)N5)c(OC)n4)c3Cl)c2Cl)cc2c1CN(CCO)CC2` [Example 455, (S)-5-((((6-(2,2′-Dichloro-3′-(2-(2-hydroxyethyl)-8-methoxy-1,2,3,4-tetrahydroisoquinolin-6-yl)-[1,1′-biphenyl]-3-yl)-2-methoxypyridin-3-yl)methyl)amino)methyl)pyrrolidin-2-one], 12 nM. The molecule `COc1nc(-c2cccc(-c3cccc(-c4ccc5c(n4)CCC[C@H]5NC[C@@H]4CCC(=O)N4)c3Cl)c2Cl)ccc1CNC[C@@H]1CCC(=O)N1` [Example 456, (S)-5-((((6-(2,2′-Dichloro-3′-((R)-5-((((S)-5-oxopyrrolidin-2-yl)methyl)amino)-5,6,7,8-tetrahydroquinolin-2-yl)-[1,1′-biphenyl]-3-yl)-2-methoxypyridin-3-yl)methyl)amino)methyl)pyrrolidin-2-one] yielded an IC50 of 0.2 nM. In the case of `COc1nc(-c2cccc(-c3cccc(-c4cc5c(=O)n(C)c(CNC6CCN(C(C)=O)CC6)nn5c4)c3Cl)c2Cl)ccc1CNC[C@@H]1CCC(=O)N1` [Example 457, 2-[[(1-Acetyl-4-piperidyl)amino]methyl]-6-[2-chloro-3-[2-chloro-3-[6-methoxy-5-[[[(2S)-5-oxopyrrolidin-2-yl]methylamino]methyl]-2-pyridyl]phenyl]phenyl]-3-methyl-pyrrolo[2,1-f][1,2,4]triazin-4-one] it was 190 nM.

Values taken from US20230143612A1 (Arbutus Biopharma Corporation, priority 2020, published 2023).
